Active and inactive are the calls of the source.
Key:
[1] = cytotoxicity in MIN6 insulinoma cells, dose response, cytotoxicity control, cell-based, mouse insulinoma (AID 2122); type: functional;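 further: confirmatory high-throughput counterscreen run to flag cytotoxic compounds; mouse MIN-6 beta cells carrying an insulin promoter eGFP reporter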
[2] = insulin promoter down-regulators in MIN6 cells, imaging, high-content screening, mouse beta cells (AID 1628); type: functional
[3] = target: Intestinal-type alkaline phosphatase (Homo sapiens, UniProt P09923); assay: activation of human intestinal alkaline phosphatase – biochemical, dose response (AID 488873); type: functional
Sequence of Intestinal-type alkaline phosphatase (Homo sapiens, UniProt P09923) (P09923 whole entry): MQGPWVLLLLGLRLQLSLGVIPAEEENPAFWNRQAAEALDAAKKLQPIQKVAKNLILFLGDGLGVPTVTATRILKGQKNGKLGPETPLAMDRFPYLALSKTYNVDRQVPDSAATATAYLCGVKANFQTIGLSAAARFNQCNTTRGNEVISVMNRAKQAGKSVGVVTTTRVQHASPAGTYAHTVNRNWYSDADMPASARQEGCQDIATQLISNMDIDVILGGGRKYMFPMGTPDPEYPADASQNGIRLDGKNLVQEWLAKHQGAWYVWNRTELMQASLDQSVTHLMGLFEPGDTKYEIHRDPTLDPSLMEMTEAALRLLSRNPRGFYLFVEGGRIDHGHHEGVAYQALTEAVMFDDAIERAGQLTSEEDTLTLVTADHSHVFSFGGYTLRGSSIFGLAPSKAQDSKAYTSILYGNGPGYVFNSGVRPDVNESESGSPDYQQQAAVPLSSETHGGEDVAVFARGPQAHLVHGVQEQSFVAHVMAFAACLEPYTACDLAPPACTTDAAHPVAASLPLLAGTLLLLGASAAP

[4] = target: T1, Apoptotic protease-activating factor 1 (Homo sapiens, UniProt O14727); type: functional
T1 sequence (O14727 whole entry): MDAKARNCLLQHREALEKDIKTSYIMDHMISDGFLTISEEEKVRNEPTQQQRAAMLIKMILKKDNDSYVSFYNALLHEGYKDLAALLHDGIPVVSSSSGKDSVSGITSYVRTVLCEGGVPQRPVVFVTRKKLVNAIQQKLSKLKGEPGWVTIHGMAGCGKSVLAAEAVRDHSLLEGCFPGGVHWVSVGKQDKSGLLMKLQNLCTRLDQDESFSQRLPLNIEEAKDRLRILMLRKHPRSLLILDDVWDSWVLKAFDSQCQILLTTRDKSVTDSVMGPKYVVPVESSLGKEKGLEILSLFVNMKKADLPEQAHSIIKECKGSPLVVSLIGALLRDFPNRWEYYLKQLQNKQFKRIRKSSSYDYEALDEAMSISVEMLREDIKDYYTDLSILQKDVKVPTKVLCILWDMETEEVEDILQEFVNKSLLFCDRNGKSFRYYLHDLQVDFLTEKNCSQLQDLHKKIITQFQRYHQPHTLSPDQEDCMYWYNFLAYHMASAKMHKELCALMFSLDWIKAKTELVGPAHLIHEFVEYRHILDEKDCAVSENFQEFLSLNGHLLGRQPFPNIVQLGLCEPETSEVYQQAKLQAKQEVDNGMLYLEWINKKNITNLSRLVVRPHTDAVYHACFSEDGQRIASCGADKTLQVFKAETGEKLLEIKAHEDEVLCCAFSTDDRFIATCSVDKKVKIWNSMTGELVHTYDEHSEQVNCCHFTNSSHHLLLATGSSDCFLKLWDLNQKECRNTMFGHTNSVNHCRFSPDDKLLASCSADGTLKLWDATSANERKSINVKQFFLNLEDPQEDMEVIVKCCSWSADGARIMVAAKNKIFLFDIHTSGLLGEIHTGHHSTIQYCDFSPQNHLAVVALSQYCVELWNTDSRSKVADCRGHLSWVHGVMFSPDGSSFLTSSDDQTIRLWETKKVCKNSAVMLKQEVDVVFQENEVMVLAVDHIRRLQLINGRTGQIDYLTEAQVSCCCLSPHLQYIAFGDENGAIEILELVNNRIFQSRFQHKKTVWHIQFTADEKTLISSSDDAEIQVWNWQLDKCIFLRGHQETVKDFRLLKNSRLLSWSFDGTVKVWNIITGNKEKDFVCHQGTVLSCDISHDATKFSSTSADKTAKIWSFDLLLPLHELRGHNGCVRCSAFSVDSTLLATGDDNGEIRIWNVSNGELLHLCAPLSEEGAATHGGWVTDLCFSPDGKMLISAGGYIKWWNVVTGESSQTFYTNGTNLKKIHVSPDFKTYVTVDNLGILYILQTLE

[5] = target: T2, Alkaline phosphatase, tissue-nonspecific isozyme (Homo sapiens, UniProt P05186); assay: TNAP enzyme activators, dose response, selectivity assay for mouse IAP activator project, biochemical, TNAP isozyme, mouse IAP uHTS hits (AID 488880); type: functional
T2 sequence (P05186 whole entry): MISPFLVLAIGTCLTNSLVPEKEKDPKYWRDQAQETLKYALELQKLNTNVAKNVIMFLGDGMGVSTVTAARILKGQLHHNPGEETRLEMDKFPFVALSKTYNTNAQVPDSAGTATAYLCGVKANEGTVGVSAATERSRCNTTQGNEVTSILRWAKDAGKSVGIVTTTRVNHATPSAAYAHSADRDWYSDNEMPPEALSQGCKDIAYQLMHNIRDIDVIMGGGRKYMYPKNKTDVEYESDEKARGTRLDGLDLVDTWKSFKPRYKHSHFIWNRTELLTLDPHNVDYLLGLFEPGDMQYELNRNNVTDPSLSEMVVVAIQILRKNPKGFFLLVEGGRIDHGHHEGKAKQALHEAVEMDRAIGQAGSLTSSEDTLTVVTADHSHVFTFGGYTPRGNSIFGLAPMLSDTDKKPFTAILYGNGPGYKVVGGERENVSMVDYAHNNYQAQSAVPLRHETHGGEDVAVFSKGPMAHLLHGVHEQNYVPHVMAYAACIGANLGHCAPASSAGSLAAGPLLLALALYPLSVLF

[6] = cytotoxicity in HEK-293T cells, dose response, cytotoxicity control for TCR NF-kB inhibitor project, luminescence, T-cell screen hits (AID 489026); type: functional, cell-based;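 further: cells exposed to compound about 14 hours before the viability readout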
[7] = target: Intestinal-type alkaline phosphatase (Mus musculus, UniProt P24822); assay: mouse intestinal alkaline phosphatase activators, dose response, biochemical, luminescence, uHTS hits (AID 488783); type: functional
Sequence of Intestinal-type alkaline phosphatase (Mus musculus, UniProt P24822) (P24822 whole entry): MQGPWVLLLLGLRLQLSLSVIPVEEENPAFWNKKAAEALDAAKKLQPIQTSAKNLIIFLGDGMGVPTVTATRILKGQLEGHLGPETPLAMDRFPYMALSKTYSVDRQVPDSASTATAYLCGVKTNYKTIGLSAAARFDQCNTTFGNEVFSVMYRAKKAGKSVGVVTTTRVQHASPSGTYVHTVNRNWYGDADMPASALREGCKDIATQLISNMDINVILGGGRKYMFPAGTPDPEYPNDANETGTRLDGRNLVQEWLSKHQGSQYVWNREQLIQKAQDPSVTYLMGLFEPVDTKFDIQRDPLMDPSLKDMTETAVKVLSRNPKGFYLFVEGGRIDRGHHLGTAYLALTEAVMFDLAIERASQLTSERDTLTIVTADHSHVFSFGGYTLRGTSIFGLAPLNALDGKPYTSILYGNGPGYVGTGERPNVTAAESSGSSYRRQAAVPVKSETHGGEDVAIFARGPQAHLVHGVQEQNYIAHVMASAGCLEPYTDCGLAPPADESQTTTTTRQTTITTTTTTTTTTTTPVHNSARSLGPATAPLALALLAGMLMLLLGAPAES

[8] = target: T3, Tyrosine-protein phosphatase non-receptor type 22 (Homo sapiens, UniProt Q9Y2R2); type: functional
T3 sequence (Q9Y2R2 whole entry): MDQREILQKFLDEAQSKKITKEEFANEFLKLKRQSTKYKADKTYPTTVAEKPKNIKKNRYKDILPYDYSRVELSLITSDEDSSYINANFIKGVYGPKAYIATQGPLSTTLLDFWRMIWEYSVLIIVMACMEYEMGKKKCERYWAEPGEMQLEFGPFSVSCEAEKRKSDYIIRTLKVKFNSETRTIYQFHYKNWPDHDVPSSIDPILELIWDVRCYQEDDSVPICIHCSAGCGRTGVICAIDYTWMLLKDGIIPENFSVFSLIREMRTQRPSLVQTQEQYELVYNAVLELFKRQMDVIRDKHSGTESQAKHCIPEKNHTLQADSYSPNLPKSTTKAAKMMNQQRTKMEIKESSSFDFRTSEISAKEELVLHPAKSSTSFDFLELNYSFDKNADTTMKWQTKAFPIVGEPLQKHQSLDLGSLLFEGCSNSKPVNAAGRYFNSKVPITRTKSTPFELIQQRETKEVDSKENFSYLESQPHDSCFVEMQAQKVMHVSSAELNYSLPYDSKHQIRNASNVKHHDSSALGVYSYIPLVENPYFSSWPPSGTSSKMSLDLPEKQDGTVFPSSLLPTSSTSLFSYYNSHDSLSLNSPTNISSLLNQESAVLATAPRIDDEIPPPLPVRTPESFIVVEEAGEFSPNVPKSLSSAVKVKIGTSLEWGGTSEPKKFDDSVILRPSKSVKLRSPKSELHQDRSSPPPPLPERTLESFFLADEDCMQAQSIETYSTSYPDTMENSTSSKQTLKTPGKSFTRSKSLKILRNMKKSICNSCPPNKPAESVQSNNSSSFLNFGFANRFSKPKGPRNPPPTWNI

[9] = target: T3, Tyrosine-protein phosphatase non-receptor type 22; type: functional; remark: listed apart in the source
[10] = target: T4, Tyrosine-protein phosphatase non-receptor type 7 (Homo sapiens, UniProt P35236); type: functional
T4 sequence (P35236 whole entry): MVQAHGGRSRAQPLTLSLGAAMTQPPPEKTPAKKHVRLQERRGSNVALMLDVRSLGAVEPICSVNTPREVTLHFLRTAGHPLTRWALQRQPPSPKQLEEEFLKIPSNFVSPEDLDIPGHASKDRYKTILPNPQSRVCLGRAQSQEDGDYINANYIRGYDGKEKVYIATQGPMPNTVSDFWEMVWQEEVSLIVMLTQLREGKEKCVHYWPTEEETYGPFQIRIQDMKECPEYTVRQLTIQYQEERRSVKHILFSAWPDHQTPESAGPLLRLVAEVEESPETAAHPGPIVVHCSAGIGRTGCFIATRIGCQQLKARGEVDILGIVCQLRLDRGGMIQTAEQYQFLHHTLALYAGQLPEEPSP

[11] = target: Voltage-dependent T-type calcium channel subunit alpha-1H (Homo sapiens, UniProt O95180); assay: Cav3.2 T-type channel blockers, cell-based, SynthLib3 library, HEK293 Cav3.2, fluorescence (AID 493041); type: functional
Sequence of Voltage-dependent T-type calcium channel subunit alpha-1H (O95180 whole entry): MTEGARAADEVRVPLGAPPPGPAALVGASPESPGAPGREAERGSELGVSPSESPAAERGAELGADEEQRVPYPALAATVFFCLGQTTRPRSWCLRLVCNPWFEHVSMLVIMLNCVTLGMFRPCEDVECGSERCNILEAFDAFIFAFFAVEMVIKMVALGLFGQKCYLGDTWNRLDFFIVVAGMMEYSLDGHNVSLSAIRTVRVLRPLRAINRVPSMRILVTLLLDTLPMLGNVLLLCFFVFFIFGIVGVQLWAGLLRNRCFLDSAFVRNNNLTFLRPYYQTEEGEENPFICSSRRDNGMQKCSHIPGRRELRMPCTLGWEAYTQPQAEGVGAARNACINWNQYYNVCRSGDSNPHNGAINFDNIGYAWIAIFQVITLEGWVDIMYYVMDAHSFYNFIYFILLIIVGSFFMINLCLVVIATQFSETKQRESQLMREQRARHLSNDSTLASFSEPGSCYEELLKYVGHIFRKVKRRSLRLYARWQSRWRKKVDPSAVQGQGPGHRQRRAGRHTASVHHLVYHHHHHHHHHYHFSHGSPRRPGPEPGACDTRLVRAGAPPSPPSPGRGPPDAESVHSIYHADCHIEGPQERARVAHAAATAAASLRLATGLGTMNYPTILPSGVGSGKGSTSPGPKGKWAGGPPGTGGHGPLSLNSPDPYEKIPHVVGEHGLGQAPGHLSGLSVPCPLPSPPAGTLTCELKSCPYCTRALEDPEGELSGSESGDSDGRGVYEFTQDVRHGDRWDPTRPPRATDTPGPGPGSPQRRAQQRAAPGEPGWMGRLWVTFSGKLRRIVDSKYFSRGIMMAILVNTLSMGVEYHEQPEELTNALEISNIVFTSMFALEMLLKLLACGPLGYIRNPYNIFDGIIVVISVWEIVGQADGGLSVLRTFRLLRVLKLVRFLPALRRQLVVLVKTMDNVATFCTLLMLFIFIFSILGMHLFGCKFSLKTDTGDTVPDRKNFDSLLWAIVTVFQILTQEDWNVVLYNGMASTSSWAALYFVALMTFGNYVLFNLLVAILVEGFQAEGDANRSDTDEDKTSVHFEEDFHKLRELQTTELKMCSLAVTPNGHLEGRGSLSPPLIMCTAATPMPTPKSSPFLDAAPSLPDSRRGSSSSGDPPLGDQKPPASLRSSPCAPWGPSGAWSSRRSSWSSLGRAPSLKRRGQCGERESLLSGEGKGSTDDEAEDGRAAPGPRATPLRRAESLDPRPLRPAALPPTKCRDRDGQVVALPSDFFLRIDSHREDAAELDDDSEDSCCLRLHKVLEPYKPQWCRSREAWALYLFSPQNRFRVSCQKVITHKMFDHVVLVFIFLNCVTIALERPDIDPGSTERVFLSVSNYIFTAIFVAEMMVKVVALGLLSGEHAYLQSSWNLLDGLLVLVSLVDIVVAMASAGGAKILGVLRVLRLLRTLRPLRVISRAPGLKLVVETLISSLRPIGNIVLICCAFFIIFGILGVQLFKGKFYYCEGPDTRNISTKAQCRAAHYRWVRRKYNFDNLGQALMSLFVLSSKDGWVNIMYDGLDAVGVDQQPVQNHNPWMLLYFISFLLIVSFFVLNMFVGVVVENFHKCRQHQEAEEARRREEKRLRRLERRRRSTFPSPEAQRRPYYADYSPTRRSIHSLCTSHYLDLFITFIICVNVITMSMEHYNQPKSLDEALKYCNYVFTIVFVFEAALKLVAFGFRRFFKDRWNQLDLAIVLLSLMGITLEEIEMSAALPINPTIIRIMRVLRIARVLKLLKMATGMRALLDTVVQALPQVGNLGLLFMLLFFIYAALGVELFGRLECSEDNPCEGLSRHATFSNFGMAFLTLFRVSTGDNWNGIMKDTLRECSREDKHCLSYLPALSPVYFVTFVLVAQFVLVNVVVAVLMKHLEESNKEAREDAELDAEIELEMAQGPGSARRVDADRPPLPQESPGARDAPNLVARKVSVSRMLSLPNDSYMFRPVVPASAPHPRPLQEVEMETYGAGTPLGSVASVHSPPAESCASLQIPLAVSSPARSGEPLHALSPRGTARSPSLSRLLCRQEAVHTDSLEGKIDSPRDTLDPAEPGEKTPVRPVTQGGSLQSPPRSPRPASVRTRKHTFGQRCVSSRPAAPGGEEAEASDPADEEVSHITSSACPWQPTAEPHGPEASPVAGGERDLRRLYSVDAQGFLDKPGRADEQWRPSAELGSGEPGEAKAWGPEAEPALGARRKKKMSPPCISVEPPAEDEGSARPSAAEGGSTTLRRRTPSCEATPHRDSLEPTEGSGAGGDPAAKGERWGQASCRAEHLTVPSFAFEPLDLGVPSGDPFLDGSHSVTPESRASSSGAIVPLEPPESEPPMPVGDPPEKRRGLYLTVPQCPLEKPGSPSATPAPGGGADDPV

With Nc1c2c(nc3ccc(Br)cc13)N(C1CCCCC1)CC2 the IC50 [1] was 4.61 µM (active) and the IC50 [2] was 3.06 µM (active).

For Cc1cc(O)c2c(c1O)C(=O)[C@]13C(=C2O)C(=O)[C@@H]2[C@@H](O)[C@H]1[C@@H]1[C@H](O)[C@H]3C(=O)C3=C(O)c4c(O)cc(C)c(O)c4C(=O)[C@]312, the EC50 [3] was 63.3 µM (active), the IC50 [4] was 19.5 µM (active) and the EC50 [5] was 51.2 µM (active). For the same compound, the IC50 [6] was > 80 µM (inactive) and the EC50 [7] was 43.1 µM (active).

With Cc1cc(C(=O)NCCCN2CCCC2=O)cs1 the IC50 [8] was > 79.4 µM (inactive), the IC50 [9] was > 79.4 µM (inactive) and the IC50 [10] was > 79.4 µM (inactive).

With CC(C)Cc1nnc(NC(=O)COc2ccc(Cl)cc2Cl)o1 the EC50 [11] was 1.8 µM (active).

— ChEMBL document CHEMBL1201862, “PubChem BioAssay data set” (2004)
